Laboratory results taken from paper PMC4861610 (Drug Design, Development and Therapy, 2016).
Values belong to the compound of their own block, whether it stands above or below them.

Assays:
[1] = target: FGFR1 kinase (Homo sapiens, UniProt P11362); assay: LANCE Ultra TR-FRET kinase assay, FGFR1; assay type: biochemical; conditions: for Selectivity ratio: ratio of the second lowest IC50 against the lowest IC50 value among FLT3, FGFR1-3, PDGFR-β, EGFR
[2] = target: T1, FLT3 (Homo sapiens, UniProt P36888); assay: LANCE Ultra TR-FRET kinase selectivity assay, FLT3; assay type: biochemical
T1 sequence (P36888 27-993): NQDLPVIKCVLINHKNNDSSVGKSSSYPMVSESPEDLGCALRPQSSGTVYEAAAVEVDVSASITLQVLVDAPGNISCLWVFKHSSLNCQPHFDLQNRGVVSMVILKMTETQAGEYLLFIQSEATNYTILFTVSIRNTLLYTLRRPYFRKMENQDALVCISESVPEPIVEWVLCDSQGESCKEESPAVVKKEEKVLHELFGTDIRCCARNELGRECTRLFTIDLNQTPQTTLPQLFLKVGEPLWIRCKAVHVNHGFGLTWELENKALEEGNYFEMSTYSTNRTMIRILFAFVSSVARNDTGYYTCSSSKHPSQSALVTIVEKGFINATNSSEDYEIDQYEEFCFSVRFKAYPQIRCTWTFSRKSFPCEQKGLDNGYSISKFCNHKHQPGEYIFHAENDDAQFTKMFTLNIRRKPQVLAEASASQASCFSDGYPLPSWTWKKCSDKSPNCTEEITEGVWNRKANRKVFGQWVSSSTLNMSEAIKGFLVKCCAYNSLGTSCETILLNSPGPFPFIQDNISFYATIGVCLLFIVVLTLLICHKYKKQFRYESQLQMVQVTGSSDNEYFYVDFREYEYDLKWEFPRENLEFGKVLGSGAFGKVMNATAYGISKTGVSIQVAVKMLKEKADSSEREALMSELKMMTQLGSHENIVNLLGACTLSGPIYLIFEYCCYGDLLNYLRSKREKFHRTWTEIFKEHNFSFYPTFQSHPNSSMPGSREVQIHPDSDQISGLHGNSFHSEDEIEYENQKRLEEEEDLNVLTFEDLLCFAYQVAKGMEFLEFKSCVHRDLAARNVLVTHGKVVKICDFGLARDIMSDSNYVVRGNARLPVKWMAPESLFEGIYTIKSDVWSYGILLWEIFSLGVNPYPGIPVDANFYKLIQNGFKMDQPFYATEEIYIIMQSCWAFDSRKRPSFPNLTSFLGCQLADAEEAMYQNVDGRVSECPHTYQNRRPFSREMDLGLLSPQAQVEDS

[3] = target: FGFR2 (Homo sapiens, UniProt P21802); assay: LANCE Ultra TR-FRET kinase selectivity assay, FGFR2; assay type: biochemical
[4] = target: FGFR3 (Homo sapiens, UniProt P22607); assay: LANCE Ultra TR-FRET kinase selectivity assay, FGFR3; assay type: biochemical
[5] = target: PDGFR-β (Homo sapiens, UniProt P09619); assay: LANCE Ultra TR-FRET kinase selectivity assay, PDGFR-β; assay type: biochemical
[6] = target: EGFR (Homo sapiens, UniProt P00533); assay: LANCE Ultra TR-FRET kinase selectivity assay, EGFR; assay type: biochemical
[7] = MTT cytotoxicity assay, normal liver HL7702 cells; assay type: cell-based, human; conditions: human, HL7702 normal liver cells
[8] = test system: HL7702 cells; assay: MTT cytotoxicity assay, normal liver HL7702 cells; assay type: cell-based, human; conditions: 2 and 10 µM, Figure 5A and B

FGFR1 kinase, sequence (P11362 478-767 limits assumed): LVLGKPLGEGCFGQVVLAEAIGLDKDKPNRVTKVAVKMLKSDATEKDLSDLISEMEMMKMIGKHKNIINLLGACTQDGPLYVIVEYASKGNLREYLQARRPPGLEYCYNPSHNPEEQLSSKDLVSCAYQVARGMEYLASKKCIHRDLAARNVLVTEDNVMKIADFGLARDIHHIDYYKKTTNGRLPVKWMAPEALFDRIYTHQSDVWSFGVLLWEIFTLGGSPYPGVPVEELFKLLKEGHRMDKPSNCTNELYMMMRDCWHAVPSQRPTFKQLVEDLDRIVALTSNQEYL
PDGFR-β, sequence (P09619 33-1106, species assumed): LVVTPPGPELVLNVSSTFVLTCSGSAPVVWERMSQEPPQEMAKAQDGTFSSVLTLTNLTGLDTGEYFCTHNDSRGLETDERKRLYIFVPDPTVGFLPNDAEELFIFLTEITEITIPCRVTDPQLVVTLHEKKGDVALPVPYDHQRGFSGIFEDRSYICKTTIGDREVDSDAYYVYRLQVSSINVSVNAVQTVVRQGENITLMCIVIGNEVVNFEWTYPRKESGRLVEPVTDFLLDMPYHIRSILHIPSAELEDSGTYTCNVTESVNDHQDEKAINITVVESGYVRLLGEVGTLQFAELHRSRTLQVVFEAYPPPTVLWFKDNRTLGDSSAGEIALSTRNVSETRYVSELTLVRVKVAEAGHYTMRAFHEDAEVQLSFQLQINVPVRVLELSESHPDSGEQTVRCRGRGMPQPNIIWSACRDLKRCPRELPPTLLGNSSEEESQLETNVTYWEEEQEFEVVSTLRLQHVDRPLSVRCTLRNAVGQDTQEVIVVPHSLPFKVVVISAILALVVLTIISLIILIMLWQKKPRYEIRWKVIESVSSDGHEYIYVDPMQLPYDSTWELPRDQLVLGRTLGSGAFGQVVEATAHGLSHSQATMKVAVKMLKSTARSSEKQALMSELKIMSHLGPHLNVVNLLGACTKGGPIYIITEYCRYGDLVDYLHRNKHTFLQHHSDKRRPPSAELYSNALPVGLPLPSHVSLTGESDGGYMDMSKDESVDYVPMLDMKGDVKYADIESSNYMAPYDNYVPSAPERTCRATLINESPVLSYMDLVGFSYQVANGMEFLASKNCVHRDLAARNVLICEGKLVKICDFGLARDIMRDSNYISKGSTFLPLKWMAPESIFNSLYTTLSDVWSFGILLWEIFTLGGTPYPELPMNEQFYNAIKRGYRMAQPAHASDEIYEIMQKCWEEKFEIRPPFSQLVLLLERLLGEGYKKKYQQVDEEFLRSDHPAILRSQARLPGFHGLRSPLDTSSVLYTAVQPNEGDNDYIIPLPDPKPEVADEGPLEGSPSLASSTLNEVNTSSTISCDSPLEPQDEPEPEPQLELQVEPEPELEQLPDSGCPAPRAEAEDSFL
FGFR2, sequence (P21802 22-821, species assumed): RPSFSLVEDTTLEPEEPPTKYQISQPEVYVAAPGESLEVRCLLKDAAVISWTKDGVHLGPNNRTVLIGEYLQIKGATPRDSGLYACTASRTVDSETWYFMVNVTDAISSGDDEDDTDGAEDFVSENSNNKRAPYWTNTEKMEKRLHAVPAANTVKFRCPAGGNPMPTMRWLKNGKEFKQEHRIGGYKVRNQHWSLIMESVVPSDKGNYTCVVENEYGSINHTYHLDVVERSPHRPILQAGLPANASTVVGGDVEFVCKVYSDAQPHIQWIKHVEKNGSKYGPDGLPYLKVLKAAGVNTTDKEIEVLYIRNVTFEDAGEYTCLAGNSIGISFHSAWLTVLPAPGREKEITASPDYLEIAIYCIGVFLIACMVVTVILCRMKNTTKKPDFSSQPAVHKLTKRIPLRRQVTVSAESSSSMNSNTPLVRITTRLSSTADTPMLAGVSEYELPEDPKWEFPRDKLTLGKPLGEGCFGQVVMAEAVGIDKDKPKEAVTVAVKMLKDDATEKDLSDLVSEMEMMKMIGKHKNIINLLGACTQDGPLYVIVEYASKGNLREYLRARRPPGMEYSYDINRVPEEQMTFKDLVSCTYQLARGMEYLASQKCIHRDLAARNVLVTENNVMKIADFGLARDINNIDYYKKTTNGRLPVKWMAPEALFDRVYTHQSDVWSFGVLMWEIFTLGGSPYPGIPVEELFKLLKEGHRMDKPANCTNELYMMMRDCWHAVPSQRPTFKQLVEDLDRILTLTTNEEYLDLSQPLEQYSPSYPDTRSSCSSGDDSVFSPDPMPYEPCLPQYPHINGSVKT
EGFR, sequence (P00533 25-1210, species assumed): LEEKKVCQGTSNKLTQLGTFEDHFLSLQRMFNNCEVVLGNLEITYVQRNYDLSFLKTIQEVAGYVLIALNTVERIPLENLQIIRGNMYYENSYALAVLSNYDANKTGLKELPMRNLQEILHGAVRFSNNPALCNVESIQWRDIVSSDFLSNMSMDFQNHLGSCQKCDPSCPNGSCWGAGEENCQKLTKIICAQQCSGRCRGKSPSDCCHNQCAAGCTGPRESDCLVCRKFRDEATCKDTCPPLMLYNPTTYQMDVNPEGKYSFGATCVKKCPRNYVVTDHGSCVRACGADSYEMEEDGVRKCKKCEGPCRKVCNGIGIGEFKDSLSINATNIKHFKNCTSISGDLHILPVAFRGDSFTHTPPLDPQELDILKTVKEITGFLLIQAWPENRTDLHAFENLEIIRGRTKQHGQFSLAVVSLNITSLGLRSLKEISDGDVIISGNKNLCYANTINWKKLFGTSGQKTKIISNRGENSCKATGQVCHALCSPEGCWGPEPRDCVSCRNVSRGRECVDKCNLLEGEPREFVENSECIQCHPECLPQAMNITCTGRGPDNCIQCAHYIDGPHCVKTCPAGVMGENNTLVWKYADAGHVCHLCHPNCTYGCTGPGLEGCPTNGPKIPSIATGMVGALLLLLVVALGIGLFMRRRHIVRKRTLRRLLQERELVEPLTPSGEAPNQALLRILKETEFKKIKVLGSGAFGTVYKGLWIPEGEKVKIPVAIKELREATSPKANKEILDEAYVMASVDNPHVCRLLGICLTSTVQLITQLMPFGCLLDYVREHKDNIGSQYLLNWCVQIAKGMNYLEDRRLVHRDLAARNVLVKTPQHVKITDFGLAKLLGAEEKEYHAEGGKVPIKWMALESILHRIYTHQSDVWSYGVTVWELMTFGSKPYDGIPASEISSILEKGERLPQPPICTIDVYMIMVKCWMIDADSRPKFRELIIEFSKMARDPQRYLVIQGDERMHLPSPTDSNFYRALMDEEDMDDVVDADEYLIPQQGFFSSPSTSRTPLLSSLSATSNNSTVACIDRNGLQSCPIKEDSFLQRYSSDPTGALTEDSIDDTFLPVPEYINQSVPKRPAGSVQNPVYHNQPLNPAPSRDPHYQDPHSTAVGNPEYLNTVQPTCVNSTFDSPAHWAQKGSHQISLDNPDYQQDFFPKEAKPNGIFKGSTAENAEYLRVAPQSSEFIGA
FGFR3, sequence (P22607 23-806, species assumed): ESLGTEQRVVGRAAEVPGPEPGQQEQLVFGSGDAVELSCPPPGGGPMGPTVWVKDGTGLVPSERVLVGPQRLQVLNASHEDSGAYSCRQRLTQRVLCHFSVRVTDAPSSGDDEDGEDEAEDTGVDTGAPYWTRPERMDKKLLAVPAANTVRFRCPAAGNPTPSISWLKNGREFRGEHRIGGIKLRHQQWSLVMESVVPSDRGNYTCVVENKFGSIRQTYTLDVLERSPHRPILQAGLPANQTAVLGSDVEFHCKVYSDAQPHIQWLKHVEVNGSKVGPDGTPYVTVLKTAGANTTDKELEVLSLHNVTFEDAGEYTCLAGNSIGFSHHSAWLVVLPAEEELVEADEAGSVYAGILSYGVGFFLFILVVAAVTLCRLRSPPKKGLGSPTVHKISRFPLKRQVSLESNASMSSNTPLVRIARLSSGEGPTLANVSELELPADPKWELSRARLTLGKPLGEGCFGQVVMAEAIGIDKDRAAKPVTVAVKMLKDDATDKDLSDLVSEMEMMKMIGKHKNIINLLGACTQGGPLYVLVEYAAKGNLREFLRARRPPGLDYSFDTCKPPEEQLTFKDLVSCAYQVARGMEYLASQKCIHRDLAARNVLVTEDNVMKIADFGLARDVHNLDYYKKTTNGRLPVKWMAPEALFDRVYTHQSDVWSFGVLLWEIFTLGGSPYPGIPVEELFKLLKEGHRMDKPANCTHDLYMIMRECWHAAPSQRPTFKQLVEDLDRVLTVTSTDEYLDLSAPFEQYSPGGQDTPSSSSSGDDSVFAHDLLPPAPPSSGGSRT

IC50 [1]: 23.2 ± 1.12 µM
Selectivity ratio [1]: 3.86
IC50 [2]: > 100 µM
IC50 [3]: > 100 µM
IC50 [4]: 89.6 ± 3.32 µM
IC50 [5]: > 100 µM
IC50 [6]: > 100 µM
Compound: O=c1[nH]c2ccccc2nc1/C=C/c1ccccc1 [A1, (E)-1,2-Dihydro-3-(2-phenylethenyl) quinoxalin-2-one]
IC50 at 72 h [7]: > 100 µM

IC50 [1]: 21.5 ± 2.24 µM
Selectivity ratio [1]: 2.57
IC50 [2]: > 100 µM
IC50 [3]: > 100 µM
IC50 [4]: 75.1 ± 2.56 µM
IC50 [5]: 55.4 ± 1.72 µM
IC50 [6]: > 100 µM
Compound: O=c1[nH]c2ccccc2nc1/C=C/c1ccccc1Cl [A2, (E)-1,2-Dihydro-3-[2-(2-chlorophenyl)ethenyl]-quinoxalin-2-one]
IC50 at 72 h [7]: 41.5 ± 7.56 µM

Compound: Oc1nc2ccccc2nc1/C=C/c1ccc(F)cc1 [A4, (E)-3-[2-(4-Fluorophenyl)ethenyl]-1,2-dihydro-quinoxalin-2-one]
IC50 at 72 h [7]: 67.9 ± 1.94 µM

Compound: O=c1[nH]c2ccccc2nc1/C=C/c1ccccn1 [A5, (E)-3-[2-(Pyridine-2-yl)ethenyl]-1,2-dihydro-quinoxalin-2-one]
inhibition ratio of FGFR1 ([1]; at 10.0 µM): 79.33%
IC50 [2]: > 100 µM
IC50 [3]: > 100 µM
IC50 [4]: > 100 µM
IC50 [5]: > 100 µM
IC50 [6]: > 100 µM
IC50 at 72 h [7]: > 100 µM
survival rate of HL7702 cells compared with TKI258 [8]: higher survival rate

Compound: O=c1[nH]c2ccccc2nc1/C=C/c1ccccc1F [A6, (E)-3-[2-(2-Fluorophenyl)ethenyl]-1,2-dihydro-quinoxalin-2-one]
IC50 at 72 h [7]: > 100 µM

Compound: O=c1[nH]c2ccccc2nc1/C=C/c1cccs1 [A7, (E)-3-[2-(Thiophene-2-yl)ethenyl]-1,2-dihydro-quinoxalin-2-one]
IC50 at 72 h [7]: 83.2 ± 8.12 µM

Compound: O=c1[nH]c2ccccc2nc1/C=C/c1ccco1 [A8, (E)-3-[2-(Furan-2-yl)ethenyl]-1,2-dihydro-quinoxalin-2-one]
IC50 at 72 h [7]: > 100 µM

Compound: COc1cccc(/C=C/c2nc3ccccc3[nH]c2=O)c1OC [A9, (E)-1,2-Dihydro-3-[2-(2,3-dimethoxyphenyl)ethenyl]-quinoxalin-2-one]
IC50 at 72 h [7]: > 100 µM

Compound: O=c1[nH]c2ccccc2nc1/C=C/c1ccccc1[N+](=O)[O-] [A10, (E)-1,2-Dihydro-3-[2-(2-nitrophenyl)ethenyl]-quinoxalin-2-one]
IC50 at 72 h [7]: 68.2 ± 5.96 µM

Compound: O=c1[nH]c2ccccc2nc1/C=C/c1ccc(C(F)(F)F)cc1 [A11, (E)-1,2-Dihydro-3-[2-(4-trifluoromethylphenyl)ethenyl]-quinoxalin-2-one]
IC50 at 72 h [7]: > 100 µM

Compound: O=c1[nH]c2ccccc2nc1/C=C/c1ccc2ccccc2c1 [A13, (E)-1,2-Dihydro-3-[2-(naphth-2-yl)ethenyl]-quinoxalin-2-one]
IC50 at 72 h [7]: > 100 µM

Compound: Cn1c(=O)c(/C=C/c2ccccc2)nc2ccccc21 [B1, (E)-1,2-Dihydro-1-methyl-3-(2-phenylethenyl)-quinoxalin-2-one]
IC50 at 72 h [7]: > 100 µM

IC50 [1]: 26.1 ± 1.32 µM
IC50 [2]: > 100 µM
IC50 [3]: > 100 µM
IC50 [4]: > 100 µM
IC50 [5]: > 100 µM
IC50 [6]: > 100 µM
Compound: Cn1c(=O)c(/C=C/c2ccccc2Cl)nc2ccccc21 [B2, (E)-3-[2-(2-Chlorophenyl)ethenyl]-1,2-dihydro-1-methyl-quinoxalin-2-one]
IC50 at 72 h [7]: > 100 µM

Compound: Cn1c(=O)c(/C=C/c2ccccc2Br)nc2ccccc21 [B3, (E)-3-[2-(2-Bromophenyl)ethenyl]-1,2-dihydro-1-methyl-quinoxalin-2-one]
IC50 at 72 h [7]: 49 ± 1.31 µM

Compound: Cn1c(=O)c(/C=C/c2ccc(F)cc2)nc2ccccc21 [B4, (E)-1,2-Dihydro-3-[2-(4-fluorophenyl)ethenyl]-1-methyl-quinoxalin-2-one]
IC50 at 72 h [7]: > 100 µM

IC50 [2]: > 100 µM
IC50 [3]: > 100 µM
IC50 [4]: > 100 µM
IC50 [5]: 89.5 ± 3.56 µM
IC50 [6]: > 100 µM
Compound: Cn1c(=O)c(/C=C/c2ccccn2)nc2ccccc21 [B5, (E)-3-[2-(Pyridine-2-yl)ethenyl]-1,2-dihydro-1-methyl-quinoxalin-2-one]

Compound: O=c1c(/C=C/c2ccccc2)nc2ccccc2n1Cc1ccccc1 [C1, (E)-1,2-Dihydro-3-(2-phenylethenyl)-1-phenylmethyl-quinoxalin-2-one]
IC50 at 72 h [7]: > 100 µM

Selectivity ratio [1]: 3.68
IC50 [2]: > 100 µM
IC50 [3]: > 100 µM
IC50 [5]: > 100 µM
IC50 [6]: > 100 µM
Compound: O=c1c(/C=C/c2ccccc2Cl)nc2ccccc2n1Cc1ccccc1 [C2, (E)-3-[2-(2-Chlorophenyl)ethenyl]-1,2-dihydro-1-phenylmethyl-quinoxalin-2-one]
IC50 at 72 h [7]: > 100 µM

Compound: O=c1c(/C=C/c2ccccc2Br)nc2ccccc2n1Cc1ccccc1 [C3, (E)-3-[2-(2-Bromophenyl)ethenyl]-1,2-dihydro-1-phenylmethyl-quinoxalin-2-one]
IC50 at 72 h [7]: > 100 µM

Compound: O=c1c(/C=C/c2ccccc2F)nc2ccccc2n1Cc1ccccc1 [C4, (E)-3-[2-(2-Fluorophenyl)ethenyl]-1,2-dihydro-1-phenylmethyl-quinoxalin-2-one]
IC50 at 72 h [7]: > 100 µM

Compound: O=c1c(/C=C/c2ccccn2)nc2ccccc2n1Cc1ccccc1 [C5, (E)-3-[2-(Pyridine-2-yl)ethenyl]-1,2-dihydro-1-phenylmethyl-quinoxalin-2-one]
IC50 at 72 h [7]: 35.8 ± 2.17 µM

Compound: Fc1ccccc1/C=C/c1nc2ccccc2nc1Cl [D1, (E)-2-Chloro-3-[2-(2-fluorophenyl)ethenyl]-quinoxalin]
IC50 at 72 h [7]: 40.2 ± 1.85 µM

Compound: CN1CCN(c2nc3ccccc3nc2/C=C/c2ccccc2F)CC1 [D3, (E)-2-(4-Methylpiperazin-1-yl)-3-[2-(2-fluorophenyl)ethenyl]-quinoxalin]
IC50 at 72 h [7]: > 100 µM

Compound: CN1CCN(c2ccc3nc(-c4c(N)c5c(F)cccc5[nH]c4=O)[nH]c3c2)CC1 [TKI258, reference compound]
IC50 at 72 h [7]: 32.8 ± 2.38 µM
